Experimental data from patent publication US5807860A, “Urea derivatives” (Mitsubishi Chemical Corporation, priority 1995, dated 1998).
pIC50: −log10 of the molar value. Where a name gives a salt, the structure may show the parent alone.

Target: T1, ACAT of HepG2 cells (Homo sapiens, UniProt P35610)
T1 construct: endogenous in cells; host or cells: HepG2
T1 sequence (P35610 1-550): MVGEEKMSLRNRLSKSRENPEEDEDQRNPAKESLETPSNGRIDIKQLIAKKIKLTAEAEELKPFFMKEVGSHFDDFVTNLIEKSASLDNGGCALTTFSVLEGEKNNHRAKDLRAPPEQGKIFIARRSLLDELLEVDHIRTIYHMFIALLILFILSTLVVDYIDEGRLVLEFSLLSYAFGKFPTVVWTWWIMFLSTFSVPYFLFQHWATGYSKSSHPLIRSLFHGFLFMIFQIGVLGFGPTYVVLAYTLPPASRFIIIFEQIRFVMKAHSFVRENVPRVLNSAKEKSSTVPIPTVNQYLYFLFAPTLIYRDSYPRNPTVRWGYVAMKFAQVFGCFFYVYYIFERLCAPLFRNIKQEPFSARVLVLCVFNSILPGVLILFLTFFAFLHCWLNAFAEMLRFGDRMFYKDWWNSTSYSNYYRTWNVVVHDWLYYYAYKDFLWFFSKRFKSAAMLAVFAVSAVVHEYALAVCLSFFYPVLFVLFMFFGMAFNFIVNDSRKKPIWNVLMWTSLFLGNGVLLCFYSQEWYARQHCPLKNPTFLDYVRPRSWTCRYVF
Assay: Inhibitory activity against ACAT of HepG2 cells derived from human liver cancer cells
Type: cell-based
Conditions: radio-labelled oleic acid/BSA complex, cholesterol oleate produced
Description: Inhibitory Activity against ACAT of HepG2 cells Derived from Human Liver Cancer Cells Inhibitory activities of the compounds of the present invention against ACAT were measured by the method described below. HepG2 cells derived from human liver cancer cells were used for the measurement of the ACAT activity. A complex of radio-labelled oleic acid and bovine serum albumin was added to a culture of the cells, and the activity was measured by observing the amount of radio-labelled cholesterol oleate produced from the radio-labelled oleic acid in the cells.

SMILES | pIC50
O=C(Nc1c(OCCCN2CCN(c3ccccc3)CC2)ccc2c1CCCC2)N(CCCc1ccccc1)Cc1ccccc1OCc1ccccn1 [Example 67] | 6.91
CCCCCN(Cc1cccc(OC)c1OCc1ccccn1)C(=O)Nc1c(OCCCN2CCN(c3ccccc3)CC2)ccc2c1CCCC2 [Example 28] | 6.14
CCCCCN(CCc1cc(-n2ccnc2)cc2c1OCO2)C(=O)Nc1c(C)cccc1OCCCN1CCN(c2ccccc2)CC1 [Example 53] | 6.22
COc1ccc(-n2ccnc2)cc1CN(C(=O)Nc1c(C)cccc1OCCCN1CCN(c2ccccc2)CC1)C1CCCC1 [Example 72] | 6.58
CCCCCN(Cc1ccc(OCc2ccccn2)cc1)C(=O)Nc1c(C)cccc1OCCCN1CCN(c2ccccc2)CC1 [Example 34] | 7.05
CCCCCN(Cc1cc(-n2cncn2)ccc1OC)C(=O)Nc1c(C)cccc1OCCCN1CCN(c2ccccc2)CC1 [Example 49] | 7.35
CCCN(Cc1cc(-n2ccnc2)cc2c1OCO2)C(=O)Nc1c(C)cccc1OCCCN1CCN(c2ccccc2)CC1 [Example 23] | 6.20
CCCCCN(Cc1cccc(-n2ccnc2)c1)C(=O)Nc1c(C)cccc1OCCCN1CCN(c2ccccc2)CC1 [Example 37] | 6.66
CCCCCN(Cc1cc(OC)ccc1-n1ccnc1)C(=O)Nc1c(C)cccc1OCCCN1CCN(c2ccccc2)CC1 [Example 57] | 6.66
CN(Cc1ccccc1OCc1ccccn1)C(=O)Nc1c(OCCCN2CCN(c3ccccc3)CC2)ccc2c1CCCC2 [Example 71] | 6.20
CCCN(Cc1ccccc1OCc1ccncc1)C(=O)Nc1c(OCCCN2CCN(c3ccccc3)CC2)ccc2c1CCCC2 [Example 70] | 6.20
CCCCCN(Cc1cc(-n2ccnc2)ccc1OC)C(=O)Nc1c(C)cccc1OCCCN1CCN(c2ccccc2)CC1 [Example 1, N-{5-(1-imidazolyl)-2-methoxyphenyl}methyl-N-(1-pentyl)-N'-[2-{3-(4-phenyl-1-piperazinyl)propoxy}-6-methylphenyl]urea] | 6.89
CCCCCN(Cc1cc(-n2cccn2)ccc1OC)C(=O)Nc1c(C)cccc1OCCCN1CCN(c2ccccc2)CC1 [Example 47] | 7.09
COc1ccc(-n2ccnc2)cc1CN(Cc1ccccc1)C(=O)Nc1c(C)cccc1OCCCN1CCN(c2ccccc2)CC1 [Example 14] | 6.62
CCCCCN(Cc1cc(-n2ccnc2)ccc1OC)C(=O)Nc1c(C)cccc1OCCN1CCN(c2ccccc2)CC1 [Example 18] | 6.79
COc1ccc(-n2ccnc2)cc1CN(Cc1ccccc1)C(=O)Nc1c(OCCCN2CCN(c3ccccc3)CC2)ccc2c1CCCC2 [Example 13] | 7.17
CCCCCN(Cc1ccc(-n2ccnc2)cc1)C(=O)Nc1c(C)cccc1OCCCN1CCN(c2ccccc2)CC1 [Example 38] | 6.55
CCCCCN(CCc1ccc(-n2ccnc2)c(OC)c1)C(=O)Nc1c(C)cccc1OCCCN1CCN(c2ccccc2)CC1 [Example 46] | 7.12
CCCCCN(Cc1ccc(OCc2ccccn2)c(OC)c1)C(=O)Nc1c(C)cccc1OCCCN1CCN(c2ccccc2)CC1 [Example 44] | 6.40
COc1ccc(-n2ccnc2)cc1CN(C(=O)Nc1c(C)cccc1OCCCN1CCN(c2ccccc2)CC1)C(C)C [Example 74] | 6.41
CCCCCN(Cc1cc(-n2ccnc2)cc2c1OCO2)C(=O)Nc1c(C)cccc1OCCCN1CCN(c2ccccc2)CC1 [Example 24] | 6.35
CCCCCN(Cc1cc(-n2cccc2)ccc1OC)C(=O)Nc1c(C)cccc1OCCCN1CCN(c2ccccc2)CC1 [Example 55] | 6.32

SMILES | pIC50
CCCCCN(Cc1ccc(OC)c(-n2ccnc2)c1)C(=O)Nc1c(C)cccc1OCCCN1CCN(c2ccccc2)CC1 [Example 58] | 6.23
CCCN(Cc1cc(-n2ccnc2)ccc1OC)C(=O)Nc1c(C)cccc1OCCCN1CCN(c2ccccc2)CC1 [Example 19] | 6.81
CCCCCN(Cc1ccccc1OCc1ccccn1)C(=O)Nc1c(C)cccc1OCCCN1CCN(c2ccccc2)CC1 [Example 32] | 6.22
CCCCCN(Cc1cccc(OCc2ccccn2)c1)C(=O)Nc1c(C)cccc1OCCCN1CCN(c2ccccc2)CC1 [Example 36] | 6.57
CCCCCN(Cc1ccc(OC)cc1OCc1ccccn1)C(=O)Nc1c(C)cccc1OCCCN1CCN(c2ccccc2)CC1 [Example 40] | 6.49
CCCCCCCN(Cc1cccc(OC)c1OCc1ccccc1)C(=O)Nc1c(OCCCN2CCN(c3ccccc3)CC2)ccc2c1CCCC2 [Example 8] | 6.38
CCCCCN(Cc1cc(-n2ccnc2)ccc1OCc1ccccn1)C(=O)Nc1c(C)cccc1OCCCN1CCN(c2ccccc2)CC1 [Example 31] | 6.86
CCCCCN(Cc1cccc(OC)c1OCc1ccccn1)C(=O)Nc1c(C)cccc1OCCCN1CCN(c2ccccc2)CC1 [Example 26] | 6.13
CCCCCN(Cc1cc(-n2ccnc2)cc(OC)c1OC)C(=O)Nc1c(C)cccc1OCCCN1CCN(c2ccccc2)CC1 [Example 20] | 6.07
CCCN(Cc1ccccc1OCc1cccnc1)C(=O)Nc1c(OCCCN2CCN(c3ccccc3)CC2)ccc2c1CCCC2 [Example 69] | 6.54
CCCCCN(CCc1cc(-n2ccnc2)ccc1OC)C(=O)Nc1c(C)cccc1OCCCN1CCN(c2ccccc2)CC1 [Example 56] | 7.27
CCCCCN(Cc1ccc(-n2ccnc2)cc1)C(=O)Nc1c(OCCCN2CCN(c3ccccc3)CC2)ccc2c1CCCC2 [Example 10] | 6.41
CCCCCN(Cc1cc(-n2ccnc2)ccc1OC)C(=O)Nc1c(C)cccc1OCCCN1CCN(c2ccccc2)CC1 [Example 2, N-{5-(1-imidazolyl)-2-methoxyphenyl}methyl-N-(1-pentyl)-N'-[2-{3-(4-phenyl-1-piperazinyl)propoxy}-6-methyphenyl]urea trihydrochloride] | 7.00
CCCN(Cc1ccccc1OCc1ccccn1)C(=O)Nc1c(OCCCN2CCN(c3ccccc3)CC2)ccc2c1CCCC2 [Example 68] | 6.73
CCCCCN(Cc1cc(-n2ccnc2)ccc1OCc1ccccn1)C(=O)Nc1c(C)cccc1OCCCN1CCN(c2ccccc2)CC1 [Example 30] | 6.63
CCCCCN(Cc1ccccc1-n1ccnc1)C(=O)Nc1c(C)cccc1OCCCN1CCN(c2ccccc2)CC1 [Example 15] | 6.29
CCCCCN(Cc1ccc(-n2ccnc2)cc1)C(=O)Nc1c(C)cccc1OCCCN1CCN(c2ccccn2)CC1 [Example 12] | 6.23
COc1ccc(-n2ccnc2)cc1CN(CC(C)C)C(=O)Nc1c(C)cccc1OCCCN1CCN(c2ccccc2)CC1 [Example 73] | 6.34
CCCCCN(Cc1ccc(-n2ccnc2)cc1)C(=O)Nc1c(C)cccc1OCCCN1CCN(c2ccccc2)CC1 [Example 11] | 6.72
CCCCCN(Cc1cc(-n2ccnc2)ccc1OC)C(=O)Nc1c(C)cccc1OCCCN1CCN(c2ccccn2)CC1 [Example 17] | 6.44
COc1cccc(CN(CCCc2ccccc2)C(=O)Nc2c(OCCCN3CCN(c4ccccc4)CC3)ccc3c2CCCC3)c1OCc1ccccc1 [Example 9] | 6.44

Target: T2, ACAT in foamed macrophages (Mus musculus, UniProt Q61263)
T2 construct: endogenous in cells; host or cells: peritoneal macrophages of ddY female mice, foamed with acetylated LDL
T2 sequence (Q61263 1-540): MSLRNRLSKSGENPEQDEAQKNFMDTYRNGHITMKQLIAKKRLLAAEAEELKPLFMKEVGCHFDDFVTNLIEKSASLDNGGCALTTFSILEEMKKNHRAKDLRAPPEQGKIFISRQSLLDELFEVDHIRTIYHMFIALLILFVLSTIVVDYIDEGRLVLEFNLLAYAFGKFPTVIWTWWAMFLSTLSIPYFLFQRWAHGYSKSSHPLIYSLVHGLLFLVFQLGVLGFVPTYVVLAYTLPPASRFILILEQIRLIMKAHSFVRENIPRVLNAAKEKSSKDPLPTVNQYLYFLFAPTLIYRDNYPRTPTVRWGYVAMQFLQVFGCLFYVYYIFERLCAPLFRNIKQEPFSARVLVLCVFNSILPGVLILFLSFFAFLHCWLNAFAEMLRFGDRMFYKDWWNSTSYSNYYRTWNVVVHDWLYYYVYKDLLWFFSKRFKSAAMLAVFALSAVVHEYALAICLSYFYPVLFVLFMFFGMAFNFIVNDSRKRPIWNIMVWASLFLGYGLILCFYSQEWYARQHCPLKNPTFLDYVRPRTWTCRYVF
Assay: Inhibitory activity against ACAT derived from foamed macrophages
Type: cell-based, mouse (ddY female mice)
Conditions: foamed macrophages from ddY female mice; acetylated LDL, 24 hours; cholesterol oleate produced; read-out: Inhibitory activity against ACAT, Macrophage (IC50)
Description: Inhibitory Activity against ACAT Derived from Foamed Macrophages
Inhibitory activity of the compounds of the present invention against ACAT in foamed macrophages was measured by the methods set out below. Acetylated low density lipoprotein was added to macrophages taken from abdominal cavities of ddY female mice and the cells were incubated for 24 hours to obtain foaming macrophages. These cells accumulated a large amount of cholesterol (ester) inside the cells, and are used as a model of arteriosclerosis lesion. ACAT activity of the cells was determined by adding a complex of radio-labelled oleic acid and bovine serum albumin to the cell culture, and observing the amount of radio-labelled cholesterol oleate that was produced from the radio-labelled oleic acid in the cells. The inhibitory activities of the compounds of the present invention against ACAT were measured as follows: percent reduction rates of enzymatic activity by the addition of given concentrations of test compounds was observed on the basis of the amount of the produced cholesterol oleate in the control group without the addition of a test compound, and by using the results, IC50, i.e., concentrations of tested compounds required to inhibit 50% of the enzyme activity, was calculated.

SMILES | pIC50
CCCCCN(Cc1ccc(OCc2ccccn2)cc1)C(=O)Nc1c(C)cccc1OCCCN1CCN(c2ccccc2)CC1 [Example 34] | 6.92
CCCCCN(Cc1cc(-n2ccnc2)ccc1OC)C(=O)Nc1c(C)cccc1OCCN1CCN(c2ccccc2)CC1 [Example 18] | 6.36
CCCCCN(Cc1ccc(OC)c(-n2ccnc2)c1)C(=O)Nc1c(C)cccc1OCCCN1CCN(c2ccccc2)CC1 [Example 58] | 5.98
CCCCCN(Cc1cc(-n2ccnc2)ccc1OC)C(=O)Nc1c(C)cccc1OCCCN1CCN(c2ccccc2)CC1 [Example 2, N-{5-(1-imidazolyl)-2-methoxyphenyl}methyl-N-(1-pentyl)-N'-[2-{3-(4-phenyl-1-piperazinyl)propoxy}-6-methyphenyl]urea trihydrochloride] | 6.88
